In PubChem BioAssay (NCI):
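The compound was tested at five concentrations on cells cultured in 96-well plates, with a 48-hour exposure period. At the TGI there is no net growth.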

Legend:
Assay in all cases: inhibition of tumour cell growth, NCI panel, 48 h
[1] = tested on: HCT-116 colon
[2] = tested on: DLD-1 colon
[3] = tested on: XF 498 CNS
[4] = tested on: MOLT-4 leukemia
[5] = tested on: SK-OV-3 ovarian
[6] = tested on: LOX IMVI melanoma
[7] = tested on: SK-MEL-2 melanoma
[8] = tested on: HT29 colon
[9] = tested on: CAKI-1 renal
[10] = tested on: OVCAR-5 ovarian
[11] = tested on: 786-0 renal
[12] = tested on: RXF-631 renal
[13] = tested on: M14 melanoma
[14] = tested on: IGROV1 ovarian
[15] = tested on: DMS 273 small cell lung
[16] = tested on: HCT-15 colon
[17] = tested on: HL-60(TB) leukemia
[18] = tested on: A549 NSCLC
[19] = tested on: SK-MEL-5 melanoma
[20] = tested on: LXFL 529 NSCLC
[21] = tested on: MALME-3M melanoma
[22] = tested on: EKVX NSCLC
[23] = tested on: HOP-62 NSCLC
[24] = tested on: UACC-257 melanoma
[25] = tested on: NCI-H522 lung
[26] = tested on: SW-620 colon
[27] = tested on: CCRF-CEM leukemia
[28] = tested on: SF-539 CNS
[29] = tested on: TK-10 renal
[30] = tested on: NCI-H460 lung
[31] = tested on: HCC-2998 colon
[32] = tested on: OVCAR-8 ovarian
[33] = tested on: RPMI-8226 leukemia
[34] = tested on: SNB-75 CNS
[35] = tested on: SNB-78 CNS
[36] = tested on: OVCAR-4 ovarian
[37] = tested on: COLO 205 colon
[38] = tested on: M19-MEL melanoma
[39] = tested on: A498 renal
[40] = tested on: SF-268 CNS
[41] = tested on: UACC-62 melanoma
[42] = tested on: NCI-H23 lung
[43] = tested on: U251 CNS
[44] = tested on: SNB-19 CNS
[45] = tested on: SK-MEL-28 melanoma
[46] = tested on: K-562 leukemia
[47] = tested on: KM12 colon
[48] = tested on: OVCAR-3 ovarian
[49] = tested on: UO-31 renal
[50] = tested on: SF-295 CNS
[51] = tested on: KM20L2 colon
[52] = tested on: SN12C renal

Measured: TGI

COc1cc(CNc2nc3ccc(C(F)(F)F)cc3nc2-c2ccccc2)cc(OC)c1OC
61.7 µM: [34]
55.7 µM: [25]
59.6 µM: [22]
87 µM: [19]
55.9 µM: [17]
55.6 µM: [49]
56.8 µM: [4]
> 100 µM: all other assays above
